Among the data in PMC9825998 (The Journal of Physiology, 2022) are IC50 values, retold here.

In general, IC50 refers to the concentration at which inhibition is half-maximal.

Read-outs that look alike come from different tables or passages of the source.

One assay has as its target T1, Kir6.2+SUR1 (Homo sapiens, UniProt Q14654).
T1 construct: expressed in transfected cells; host or cells: HEK293T
Description: Nucleotide inhibition of KATP currents in inside-out patches from HEK293T cells, Hill fit. In kind it is biochemical. As to the method:
(§1) Human Kir6.2 and SUR1 were subcloned into pCGFP_EU [green fluorescent proten (GFP)‐tagged constructs] and pcDNA4/TO, respectively. Site‐directed mutagenesis and amber stop codons were introduced using the QuikChange XL system (Stratagene, San Diego, CA, USA) and verified by sequencing (DNA Sequencing and Services, Dundee, UK), as previously described (Usher et al., [2020]). HEK293T cells were grown in Dulbecco's modified Eagle's medium (DMEM; Sigma) with the addition of 10% fetal bovine serum, 100 U ml^−1 penicillin and 100 μg ml^−1 streptomycin (Thermo Fisher Scientific; Waltham, MA, USA) at 37°C, 5:95 CO2:air. Cells were seeded in T25 flasks for 24 h, before transfection with TransIT‐LT1 (Mirus Bio LLC, Madison, WI, USA). Protein expression and trafficking to the plasma membrane were optimized by including 300 μM tolbutamide in the transfection media (Yan et al., [2007]). 3‐(6‐Acetylnaphthalen‐2‐ylamino)‐2‐aminopropanoic acid (ANAP)‐tagged Kir6.2 constructs were cultured in the presence of 20 μM ANAP (free acid; AsisChem, Waltham, MA, USA), and 48 h post‐transfection the cells were re‐plated onto either poly‐D‐lysine‐coated glass‐bottomed FluoroDishes (FD35‐PDL‐100; World Precision Instruments) or poly‐L‐lysine‐coated 35 mm Petri dishes (Corning). pCDNA4/TO and pANAP were obtained from Addgene. peRF1‐E55D (Homo sapiens) and pCGFP_EU (Aequorea victoria) were kind gifts from the Chin Laboratory (MRC Laboratory of Molecular Biology, Cambridge, UK) and Gouaux Laboratory (Vollum Institute, Portland, OR, USA), respectively.
(§2) Extracellular (pipette) solutions contained (mM): 140 KCl, 1 EGTA and 10 Hepes (pH adjusted to 7.3 with KOH). The intracellular (bath) solutions contained (mM): 140 KCl, 1 EDTA, 1 EGTA, 10 Hepes (pH adjusted to 7.3 with KOH). Inside‐out patches were excised from transfected HEK293T cells using borosilicate glass pipettes (GC150F‐15; Harvard Apparatus, Holliston, MA, USA) pulled to a resistance of 1–3 MΩ. Data were acquired at a holding potential of −60 mV using an Axopatch 200B amplifier and a Digidata 1322A digitizer run through pClamp 9 software (Molecular Devices, San Jose, CA, USA).

Assay [1] has as its target T2, Kir6.2‐K39A+SUR1 (Homo sapiens, UniProt Q14654, K39A).
T2 construct: expressed in transfected cells; host or cells: HEK293T
The assay is described as above. Type of assay: biochemical. As to the method:
as §1, §2

A further assay deals with T3, Kir6.2‐K39E+SUR1 (Homo sapiens, UniProt Q14654, K39E).
T3 construct: expressed in transfected cells; host or cells: HEK293T
Described as above. In kind it is biochemical. The procedure: as §1, §2

Assay [2] concerns the target T4, Kir6.2‐K39R+SUR1 (Homo sapiens, UniProt Q14654, K39R).
T4 construct: expressed in transfected cells; host or cells: HEK293T
Described as above. In kind it is biochemical. As to the method: as §1, §2

The target in assay [3] is T2, Kir6.2‐K39A+SUR1. Further details: method as in previous submission of this manuscript. As to conditions: construct not specified further, quoted by Referee #4, ref previous submission of this manuscript; cited from earlier work.
The target of assay [4] is T4, Kir6.2‐K39R+SUR1. Further details: method as in previous submission of this manuscript. As to conditions: construct not specified further, quoted by Referee #4, ref previous submission of this manuscript; cited from earlier work.

T2 sequence (Q14654 whole entry K39A): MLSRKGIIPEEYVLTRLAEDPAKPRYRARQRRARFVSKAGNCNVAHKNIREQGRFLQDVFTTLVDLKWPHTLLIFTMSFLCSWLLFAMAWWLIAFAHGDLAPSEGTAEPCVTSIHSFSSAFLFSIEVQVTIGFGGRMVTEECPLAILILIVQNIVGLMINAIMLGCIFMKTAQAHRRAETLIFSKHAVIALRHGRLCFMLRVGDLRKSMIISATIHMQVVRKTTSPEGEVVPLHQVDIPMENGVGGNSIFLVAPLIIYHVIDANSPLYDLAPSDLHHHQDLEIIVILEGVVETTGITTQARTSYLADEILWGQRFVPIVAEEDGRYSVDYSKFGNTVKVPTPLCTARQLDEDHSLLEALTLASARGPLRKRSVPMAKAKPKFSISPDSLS
T2 sequence (Q09428 whole entry partner): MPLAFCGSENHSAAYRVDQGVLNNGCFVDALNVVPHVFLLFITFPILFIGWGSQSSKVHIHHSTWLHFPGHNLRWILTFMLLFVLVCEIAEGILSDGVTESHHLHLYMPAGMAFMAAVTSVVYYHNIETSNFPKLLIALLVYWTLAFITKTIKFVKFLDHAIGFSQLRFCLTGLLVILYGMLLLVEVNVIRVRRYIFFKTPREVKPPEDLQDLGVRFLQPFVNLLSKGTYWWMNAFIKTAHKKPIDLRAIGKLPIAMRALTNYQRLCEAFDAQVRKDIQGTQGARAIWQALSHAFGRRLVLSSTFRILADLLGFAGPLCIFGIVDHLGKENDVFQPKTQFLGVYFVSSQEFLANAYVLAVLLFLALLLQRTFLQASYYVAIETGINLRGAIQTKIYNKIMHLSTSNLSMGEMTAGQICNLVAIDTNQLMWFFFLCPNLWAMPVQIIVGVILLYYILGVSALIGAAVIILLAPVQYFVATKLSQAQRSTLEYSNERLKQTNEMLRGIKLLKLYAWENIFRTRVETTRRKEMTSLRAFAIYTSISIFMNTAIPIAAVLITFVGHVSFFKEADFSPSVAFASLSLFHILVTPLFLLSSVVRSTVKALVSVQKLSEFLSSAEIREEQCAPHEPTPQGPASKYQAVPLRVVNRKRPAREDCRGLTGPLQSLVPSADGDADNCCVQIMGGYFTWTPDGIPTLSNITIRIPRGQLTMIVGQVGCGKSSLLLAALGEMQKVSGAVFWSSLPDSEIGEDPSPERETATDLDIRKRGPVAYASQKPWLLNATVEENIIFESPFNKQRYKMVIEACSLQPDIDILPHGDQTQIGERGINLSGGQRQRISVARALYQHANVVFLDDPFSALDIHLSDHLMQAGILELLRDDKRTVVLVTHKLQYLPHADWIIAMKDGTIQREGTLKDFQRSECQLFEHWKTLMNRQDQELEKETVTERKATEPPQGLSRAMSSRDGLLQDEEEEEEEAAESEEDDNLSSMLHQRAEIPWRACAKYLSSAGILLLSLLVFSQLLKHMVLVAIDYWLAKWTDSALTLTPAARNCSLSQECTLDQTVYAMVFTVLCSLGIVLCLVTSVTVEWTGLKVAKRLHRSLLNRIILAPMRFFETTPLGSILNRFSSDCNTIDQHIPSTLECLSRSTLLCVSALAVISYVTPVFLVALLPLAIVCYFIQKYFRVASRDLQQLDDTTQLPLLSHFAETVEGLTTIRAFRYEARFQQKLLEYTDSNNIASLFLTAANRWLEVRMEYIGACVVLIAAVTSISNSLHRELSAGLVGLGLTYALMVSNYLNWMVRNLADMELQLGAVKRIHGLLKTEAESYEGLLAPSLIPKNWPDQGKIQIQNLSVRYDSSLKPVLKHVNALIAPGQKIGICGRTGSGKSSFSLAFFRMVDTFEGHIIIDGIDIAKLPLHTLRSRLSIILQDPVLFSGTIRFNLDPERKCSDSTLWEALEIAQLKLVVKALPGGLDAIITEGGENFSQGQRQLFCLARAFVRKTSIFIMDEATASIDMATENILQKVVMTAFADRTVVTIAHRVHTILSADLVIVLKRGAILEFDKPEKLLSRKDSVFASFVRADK
T4 sequence (Q14654 whole entry K39R): as the sequence (Q14654 whole entry K39A) above, with A39R counted along it
T4 sequence (Q09428 whole entry partner): as the sequence (Q09428 whole entry partner) above
T1 sequence (Q14654 whole entry): as the sequence (Q14654 whole entry K39A) above, with A39K counted along it
T1 sequence (Q09428 whole entry partner): as the sequence (Q09428 whole entry partner) above
T3 sequence (Q14654 whole entry K39E): as the sequence (Q14654 whole entry K39A) above, with A39E counted along it
T3 sequence (Q09428 whole entry partner): as the sequence (Q09428 whole entry partner) above

As to `Nc1ncnc2c1ncn2[C@@H]1O[C@H](COP(=O)(O)OP(=O)(O)OP(=O)(O)O)[C@H]2OC3(O[C@H]21)C([N+](=O)[O-])=CC(=[N+]([O-])[O-])C=C3[N+](=O)[O-]` (stereo partly drawn) [TNP‐ATP, trinitrophenyl adenosine triphosphate], the IC50 is 1.08 µM on Kir6.2+SUR1; 11 µM on Kir6.2‐K39A+SUR1 [1]; 11.8 µM against Kir6.2‐K39E+SUR1; 2.48 µM at Kir6.2‐K39R+SUR1 [2]; 13.2 µM at Kir6.2‐K39A+SUR1 [3]; 2.62 µM on Kir6.2‐K39R+SUR1 [4].
